Measurements from the supplement of paper PMC5908809.

Experiments:
[1] = system: normal primary NK cells, pool 3 (3 donors) (IL-2 2.5 ng/mL); assay: percent inhibition of viability; higher = more inhibition; conditions: 72 h
IMC-1 (IL-2 20 ng/mL) [2] = assay: as above; conditions: 72 h
[3] = system: normal primary NK cells, pool 1 (3 donors) (IL-2 2.5 ng/mL); assay: as above; conditions: 72 h
KHYG-1 (IL-2 2.5 ng/mL) [4] = assay: as above; conditions: 72 h
NK-YS (IL-2 2.5 ng/mL) [5] = assay: as above; conditions: 72 h
DERL-7 (IL-2 2.5 ng/mL) [6] = assay: as above; conditions: 72 h
[7] = system: normal primary NK cells, pool 1 (3 donors), resting (IL-2 0 ng/mL); assay: as above; conditions: 72 h
KAI3 (IL-2 2.5 ng/mL) [8] = assay: as above; conditions: 72 h
NK-92 (IL-2 2.5 ng/mL) [9] = assay: as above; conditions: 72 h
YT (IL-2 2.5 ng/mL) [10] = assay: as above; conditions: 72 h
[11] = system: normal primary NK cells, pool 2 (3 donors) (IL-2 2.5 ng/mL); assay: as above; conditions: 72 h
NKL (IL-2 2.5 ng/mL) [12] = assay: as above; conditions: 72 h
SNK-6 (IL-2 2.5 ng/mL) [13] = assay: as above; conditions: 72 h
[14] = system: normal NK cells expanded with K562-aAPC; assay: drug sensitivity score (DSS) (DSS units); higher = more sensitive; extreme values may be limits of the assay; conditions: 72 h; IL-2 2.5 ng/mL
Description: (§1)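 Drug sensitivity and resistance testing on K562-aAPC-expanded normal NK cells: 5 concentrations (10-fold steps over a 10,000-fold range), 72 h at 37 °C, viability by CellTiter-Glo normalised to DMSO and benzethonium chloride controls; DSS from the fitted curve.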

[15] = system: normal NK cells expanded with K562-aAPC; assay: percent inhibition of viability; higher = more inhibition; conditions: 72 h, IL-2 2.5 ng/mL
Description: as §1

[16] = system: normal primary NK cells, pool 3 (3 donors) (IL-2 2.5 ng/mL); assay: drug sensitivity score (DSS) (DSS units); higher = more sensitive; extreme values may be limits of the assay; conditions: 72 h
IMC-1 (IL-2 20 ng/mL) [17] = assay: as above; conditions: 72 h
[18] = system: normal primary NK cells, pool 1 (3 donors) (IL-2 2.5 ng/mL); assay: as above; conditions: 72 h
KHYG-1 (IL-2 2.5 ng/mL) [19] = assay: as above; conditions: 72 h
NK-YS (IL-2 2.5 ng/mL) [20] = assay: as above; conditions: 72 h
DERL-7 (IL-2 2.5 ng/mL) [21] = assay: as above; conditions: 72 h
[22] = system: normal primary NK cells, pool 1 (3 donors), resting (IL-2 0 ng/mL); assay: as above; conditions: 72 h
KAI3 (IL-2 2.5 ng/mL) [23] = assay: as above; conditions: 72 h
NK-92 (IL-2 2.5 ng/mL) [24] = assay: as above; conditions: 72 h
YT (IL-2 2.5 ng/mL) [25] = assay: as above; conditions: 72 h
[26] = system: normal primary NK cells, pool 2 (3 donors) (IL-2 2.5 ng/mL); assay: as above; conditions: 72 h
NKL (IL-2 2.5 ng/mL) [27] = assay: as above; conditions: 72 h
SNK-6 (IL-2 2.5 ng/mL) [28] = assay: as above; conditions: 72 h

NC(=O)NO [Hydroxyurea] (max concentration tested 100000 nM)
percent inhibition of viability [%]
Conditions	10 nM	100 nM	1000 nM	10000 nM	100000 nM
DERL-7 (IL-2 2.5 ng/mL) [6]	2.03	-0.08	8.03	-3.4	12.6
IMC-1 (IL-2 20 ng/mL) [2]	-6.14	-2.56	-2.39	-0.1	9.95
KAI3 (IL-2 2.5 ng/mL) [8]	24.5	13.1	12.7	20.9	51.8
KHYG-1 (IL-2 2.5 ng/mL) [4]	-10.9	-7.34	-3.16	8.85	17.1
NK-92 (IL-2 2.5 ng/mL) [9]	6.26	6.63	2.07	31.3	48.5
NK-YS (IL-2 2.5 ng/mL) [5]	-0.41	-2.69	-1.46	3.98	29.3
NKL (IL-2 2.5 ng/mL) [12]	4.79	-0.36	15	24.1	48.3
SNK-6 (IL-2 2.5 ng/mL) [13]	15.2	-7.82	-13.1	-12.9	1.36
YT (IL-2 2.5 ng/mL) [10]	-10.8	-9.74	-3.92	0.46	14.2
[1]	6.75	1.29	8.4	-5.82	7.32
[3]	-2.1	5.26	3.61	-8.28	4.04
[7]	15.8	15.8	15.4	15.8	15.6
[11]	1.52	0.13	10.8	4.35	13.4
[15]	2.1	-5.76	-2.1	8.98	49.1

Conditions	drug sensitivity score
DERL-7 (IL-2 2.5 ng/mL) [21]	0.03
IMC-1 (IL-2 20 ng/mL) [17]	0
KAI3 (IL-2 2.5 ng/mL) [23]	8.49
KHYG-1 (IL-2 2.5 ng/mL) [19]	1.16
NK-92 (IL-2 2.5 ng/mL) [24]	6.31
NK-YS (IL-2 2.5 ng/mL) [20]	1.89
NKL (IL-2 2.5 ng/mL) [27]	6.01
SNK-6 (IL-2 2.5 ng/mL) [28]	0
YT (IL-2 2.5 ng/mL) [25]	0.2
[14]	4.07
[16]	0
[18]	0
[22]	4.95
[26]	0.1

C=C(c1ccc(C(=O)O)cc1)c1cc2c(cc1C)C(C)(C)CCC2(C)C [Bexarotene] (max concentration tested 10000 nM)
percent inhibition of viability [%]
Conditions	1 nM	10 nM	100 nM	1000 nM	10000 nM
DERL-7 (IL-2 2.5 ng/mL) [6]	-1.72	-14.1	-7.53	1.51	6.9
IMC-1 (IL-2 20 ng/mL) [2]	-7.44	-4.67	-6.9	-7.39	14.5
KAI3 (IL-2 2.5 ng/mL) [8]	-2.82	4.02	5.5	12.6	29.6
KHYG-1 (IL-2 2.5 ng/mL) [4]	0.07	-1.61	31.4	35.3	42.5
NK-92 (IL-2 2.5 ng/mL) [9]	-0.26	-14.3	18	38.2	32.8
NK-YS (IL-2 2.5 ng/mL) [5]	-0.63	-6.05	10.2	30.5	40.5
NKL (IL-2 2.5 ng/mL) [12]	-2.63	-4.9	33.7	59.2	80.4
SNK-6 (IL-2 2.5 ng/mL) [13]	-4.84	-4.27	10	4.19	25.4
YT (IL-2 2.5 ng/mL) [10]	1.74	-2.56	5.09	22.2	38.4
[1]	-2.37	-1.77	4	-8.07	-0.96
[3]	2.65	3.77	5.07	-0.78	2.54
[7]	6.01	-4.44	-0.24	2.22	15.6
[11]	-3.26	-9.74	-11.1	-7.66	2.35
[15]	-0.13	-7.46	-13.6	-8.25	-6.11

Conditions	drug sensitivity score
DERL-7 (IL-2 2.5 ng/mL) [21]	0
IMC-1 (IL-2 20 ng/mL) [17]	0.08
KAI3 (IL-2 2.5 ng/mL) [23]	2.32
KHYG-1 (IL-2 2.5 ng/mL) [19]	11.4
NK-92 (IL-2 2.5 ng/mL) [24]	9.12
NK-YS (IL-2 2.5 ng/mL) [20]	6.37
NKL (IL-2 2.5 ng/mL) [27]	15.3
SNK-6 (IL-2 2.5 ng/mL) [28]	1.61
YT (IL-2 2.5 ng/mL) [25]	4.39
[14]	0
[16]	0
[18]	0
[22]	0.5
[26]	0

Cc1cc([C@@H](C)Nc2ccccc2C(=O)O)c2nc(N3CCOCC3)cc(=O)n2c1 [AZD-6482] (max concentration tested 2500 nM)
percent inhibition of viability [%]
Conditions	0.25 nM	2.5 nM	25 nM	250 nM	2500 nM
DERL-7 (IL-2 2.5 ng/mL) [6]	-4.2	-4.4	3.19	2.6	17
IMC-1 (IL-2 20 ng/mL) [2]	1.39	3.21	2.72	3.93	-5.9
KAI3 (IL-2 2.5 ng/mL) [8]	-5.85	-0.65	-3.24	1.82	7.93
KHYG-1 (IL-2 2.5 ng/mL) [4]	-0.9	1.99	2.56	6.11	8.71
NK-92 (IL-2 2.5 ng/mL) [9]	-8.01	-6.53	4.21	8.86	41.9
NK-YS (IL-2 2.5 ng/mL) [5]	-5.33	-1.23	-3.08	0.81	7.94
NKL (IL-2 2.5 ng/mL) [12]	-13.3	2.45	-1.09	6.43	-3.2
SNK-6 (IL-2 2.5 ng/mL) [13]	17.7	22.5	28.9	18.4	9.67
YT (IL-2 2.5 ng/mL) [10]	2.09	3.67	7.43	14.2	28.4
[1]	-9.49	-6.79	13.8	-3.71	13
[3]	-3.99	-0.34	5.64	2.68	19.6
[7]	1.92	-14.9	-3.13	-1.54	14
[11]	-5.18	0.99	18.9	5.04	17.1
[15]	-0.89	-3.51	0.58	12.4	16.6

Conditions	drug sensitivity score
DERL-7 (IL-2 2.5 ng/mL) [21]	0.68
IMC-1 (IL-2 20 ng/mL) [17]	0
KAI3 (IL-2 2.5 ng/mL) [23]	0
KHYG-1 (IL-2 2.5 ng/mL) [19]	0
NK-92 (IL-2 2.5 ng/mL) [24]	3.55
NK-YS (IL-2 2.5 ng/mL) [20]	0
NKL (IL-2 2.5 ng/mL) [27]	0
SNK-6 (IL-2 2.5 ng/mL) [28]	0.11
YT (IL-2 2.5 ng/mL) [25]	2.58
[14]	1.31
[16]	0.05
[18]	0.92
[22]	0.12
[26]	1.26
